Patent publication US20240270743A1, “TETRAHYDROPYRAZOLOPYRIDINE-ANALOG LIGANDS OF NLRX1 AND USES THEREOF” (LANDOS BIOPHARMA, INC., priority 2021, published 2024)

Columns and labels:
CD4+ T cells = assay: Immunological screening in vitro in CD4+ T cells (flow cytometry); assay type: cell-based, C57BL/6 mice; settings: 100 nanomolar, 24 h, anti-CD3/CD28, PMA and ionomycin last 6 h; for production of TNFα / percentage of TNFα+ CD4+ T cells: relative to vehicle control (FIG. 3A); for production of IFNγ / percentage of IFNγ+ CD4+ T cells: relative to vehicle control (FIG. 3B)
Text: Cell culture. Spleens were excised from C57BL/6 mice. Spleens were crushed between the frosted ends of microscope slides and filtered to provide a cellular suspension. Red blood cells were lysed through hypotonic lysis. Remaining cells were washed and filtered. CD4+ T cells were enriched within the suspension using magnetic sorting based negative selection. Cells were collected and plated within 96 well plates coated with anti-CD3/CD28 and cultured in the presence of LABP-72-4, LABP-72-38, LABP-72-56, LABP-72-69 at 0 or 100 nanomolar for 24 h. During the last 6 h of culture, cells were stimulated with phorbol 12-myristate-13-acetate (PMA) and ionomycin.
Immunological analysis. Cells were collected from 96 well plates and stained with a cocktail of antibodies for immunophenotyping by flow cytometry. Culture supernatant was collected and assayed for cytokine concentrations by cytometric bead array. Data was captured on a BD FACS Celesta and analyzed using FACSDiva.

[1] = system: house dust mite model of asthma; assay: House dust mite (HDM)-induced model of asthma; assay type: in vivo, BALB/c mice; settings: 20 mg/kg daily intranasal, 3 weeks of house dust mite challenge
Description: HDM-induced model. BALB/c mice were sensitized to house dust mite with 25 μg administered daily by intranasal instillation for five days. Challenge with house dust mite (25 μg/d) occurred for 5 consecutive days for the following three weeks. Treatment with LABP-72-38 (20 mg/kg) or vehicle control occurred daily during this three-week period. An unchallenged negative control group was included for comparison. Immunological analysis. Lungs were collected on day 18 (OVA) or day 27 (HDM). Lung tissue was minced and digested in RPMI supplemented with FBS, HEPES, and calcium chloride containing 300 U/mL collagenase and 50 U/mL DNase for 45 minutes at 37° C. After filtration, red blood cells were lysed. Cells were labeled with mixtures of extracellular (CD45, CD3, CD4, CD8, MHCII, CD11b, CD11c, SiglecF, Ly6C, Ly6G) antibodies in a sequential live staining in 96-well plates in preparation for flow cytometry. Data was captured on a BD FACS Celesta and analyzed using FACSDiva.

[2] = system: OVA-induced model of asthma; assay: OVA-induced model of asthma; assay type: in vivo, BALB/c mice; settings: 50 mg/kg daily by oral gavage, days 14-17, day 18
Description: OVA-induced model. BALB/c mice were immunized with 10 μg of ovalbumin (OVA) in aluminum hydroxide gel by intraperitoneal injection on day 0 and 7 of the experiment. Mice were then exposed to OVA (8% w/v) by aerosolization for 25 minutes daily between days 14 and 17. Treatment with LABP-72-38 (50 mg/kg) or vehicle control occurred daily between days 14 and 17 by oral gavage. An unchallenged negative control group was included for comparison. Dosage was calculated based off mean body weights. Immunological analysis. Lungs were collected on day 18 (OVA) or day 27 (HDM). Lung tissue was minced and digested in RPMI supplemented with FBS, HEPES, and calcium chloride containing 300 U/mL collagenase and 50 U/mL DNase for 45 minutes at 37° C. After filtration, red blood cells were lysed. Cells were labeled with mixtures of extracellular (CD45, CD3, CD4, CD8, MHCII, CD11b, CD11c, SiglecF, Ly6C, Ly6G) antibodies in a sequential live staining in 96-well plates in preparation for flow cytometry. Data was captured on a BD FACS Celesta and analyzed using FACSDiva.

[3] = system: high fat diet induced obesity model; assay: High fat diet-induced model of obesity; assay type: in vivo, C57BL6 mice; settings: 10 mg/kg daily oral gavage for 4 weeks
Description: Mouse model. C57BL6 mice were challenged with 16 weeks of high fat feeding by ad libitum exposure to rodent diet chow containing 60% kcal from fat. After 12 weeks of challenge, mice were treated daily with LABP-72-38 at 10 mg/kg for 4 weeks. Treatment was delivered by oral gavage. Mice were weighed weekly. Blood glucose levels were measured by glucometer on blood collected from the tail vein. After 16 weeks of diet, livers were excised and weighed. Weights were normalized to the total body weight.

[4] = system: bleomycin mouse model of pulmonary fibrosis; assay: Bleomycin-induced model of pulmonary fibrosis; assay type: in vivo, C57BL/6 mice; settings: 50 mg/kg once daily oral gavage from day 7, lungs 2 weeks after bleomycin
Description: Bleomycin model. C57BL/6 mice were anesthetized by isoflurane and intratracheally administered 1 mg/kg bleomycin at day 0. LABP-72-38 was prepared within a 0.5% methylcellulose (12-15 cP) solution. Dosage used was 50 mg/kg delivered once daily, by oral gavage beginning 7 days after bleomycin challenge. Lungs were collected 2 weeks after bleomycin challenge.
Flow Cytometry. Lungs were collected into RPMI/FBS buffer containing collagenase (300U/mL) and DNase (50U/mL) for digestion. Tissues were digested for 45 minutes under stirring at 37° C. Resultant cellular suspensions were filtered through 100 μm strainers, and centrifuged (300× g, 8 min). Red blood cells were lysed from the cellular suspensions. Cells were filtered and washed in fresh RPMI. Cells were labeled with mixtures of extracellular (CD45, CD3, CD4, CD8, CD19, NK1.1, F4/80, CD11b, Gr1) and intracellular (IL21) antibodies in a sequential live staining in 96-well plates. Data was acquired using a FACS Celesta flow cytometer with FACSDiva software.

SMILES | production of TNFα / percentage of TNFα+ CD4+ T cells (CD4+ T cells) | production of IFNγ / percentage of IFNγ+ CD4+ T cells (CD4+ T cells) | percentage of eosinophils within the lung ([1]; relative to vehicle control (FIG. 5A)) | percentage of neutrophils within the lung ([1]; relative to vehicle control (FIG. 5B)) | percentage of eosinophils within the lung ([2]; relative to vehicle control (FIG. 4A)) | concentrations of anti-OVA IgE antibodies in the serum ([2]; relative to vehicle control (FIG. 4B)) | blood glucose level ([3]; 16 weeks high fat diet (FIG. 7A)) | body weight normalized liver weight ([3]; 16 weeks high fat diet, compared to vehicle (FIG. 7B)) | proportions of neutrophils in the lungs ([4]; relative to vehicle (FIG. 6A)) | proportions of IL21+ cells in the lungs ([4]; relative to vehicle (FIG. 6B))
O=C(O)Cc1cncc(N2CCc3nn(-c4cc(F)cc(F)c4)cc3C2=O)c1 [LABP-72-4] | significantly reducing | significantly reducing | – | – | – | – | – | – | – | –
O=C(O)Cc1cncc(N2CCc3nn(-c4cc(F)cc(F)c4)cc3C2=O)c1 [LABP-72-38, 2-(5-(2-(3,5-difluorophenyl)-4-oxo-2,4,6,7-tetrahydro-5H-pyrazolo[4,3-c]pyridin-5-yl)pyridin-3-yl)acetic acid] | – | – | reduced | reduced | reduced | reducing | reduced | reduced | decreased | decreased
O=C(O)Cc1ccc(N2CCc3c(cnn3-c3cc(F)cc(F)c3)C2=O)cn1 [LABP-72-69, 2-(5-(1-(3,5-difluorophenyl)-4-oxo-1,4,6,7-tetrahydro-5H-pyrazolo[4,3-c]pyridin-5-yl)pyridin-2-yl)acetic acid] | significantly reducing | significantly reducing | – | – | – | – | – | – | – | –
